Measurements as given in US6291194A, “Assay for determination of androgenic or anti-androgenic activity of a serum sample or a test compound” (priority 2000, dated 2001).

Assays:
androgen receptor (AR) = molecular target: T1, androgen receptor (AR) (Homo sapiens, UniProt P10275); assay: COS-1 bioassay, inhibition by nonsteroidal antiandrogens of testosterone-induced AR LBD / N-terminal interaction; assay type: cell-based
T1 construct: The LBD of human AR (containing amino acids 657-919); expressed in transfected cells; host or cells: COS-1 cells (ATCC CRL1650)

[1] = cited from earlier work

T1 sequence (P10275 with tags, fused parts or gaps limits assumed): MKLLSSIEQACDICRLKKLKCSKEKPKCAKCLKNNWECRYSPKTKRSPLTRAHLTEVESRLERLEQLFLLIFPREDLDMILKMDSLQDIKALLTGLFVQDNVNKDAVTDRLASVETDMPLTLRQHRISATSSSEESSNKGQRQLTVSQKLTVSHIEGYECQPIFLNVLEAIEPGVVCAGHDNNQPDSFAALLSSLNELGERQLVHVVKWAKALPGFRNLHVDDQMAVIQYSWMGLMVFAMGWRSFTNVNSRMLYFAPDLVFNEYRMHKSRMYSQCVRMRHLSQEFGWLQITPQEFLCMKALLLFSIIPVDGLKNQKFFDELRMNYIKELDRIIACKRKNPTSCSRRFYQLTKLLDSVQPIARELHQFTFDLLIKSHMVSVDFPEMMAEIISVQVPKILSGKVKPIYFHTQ

Row | SMILES | effect on interaction between AR termini / relative luciferase activity (in words) (androgen receptor (AR)) | relative luciferase activity as % of activity with testosterone-containing FCS without antiandrogen (androgen receptor (AR); 100 times molar amount of testosterone (10 nmol/L testosterone in FCS)) | free fraction of total testosterone in serum [1]
1 | CC(C)(O)C(=O)Nc1ccc([N+](=O)[O-])c(C(F)(F)F)c1 [hydroxyflutamide, 4-hydroxy-α,α,α-trifluoro-2-methyl-4'-nitro-m-propionotoluidide] | suppressed relative luciferase activity | ~ 5% | 
2 | C[C@]12CC[C@H]3[C@@H](CCC4=CC(=O)CC[C@@]43C)[C@@H]1CC[C@@H]2O [testosterone, Testosterone] |  |  | 2-3%
